Experimental data reported in article PMC8373983, “Effect of salinity on the zinc(II) binding efficiency of siderophore functional groups and implications for salinity tolerance mechanisms in barley” (Scientific Reports, 2021).
Like-named read-outs stand apart in the source and are kept apart here. Blank lines part the entries; values can stand above or below the compound they belong to.

Experiments:
[1] = tested on: wild and cultivated barley plants; conditions: 0.20 M NaCl; hydroponic, no initial micronutrient deficiencies; cited from earlier work
[2] = tested on: barley plants; conditions: cited from earlier work
[3] = Zinc(II) hydrolysis constants, potentiometric titration in NaCl; format: physicochemical; conditions: T = 298.1 K
Method: A 30 ml solution containing each ligand ([L] = 5 – 10 mM), NaCl and HCl was titrated with standard NaOH solutions. For the zinc(II)/ligand systems, the titrant solutions consisted of different amounts of ligand ([L] = 5 − 10 mM), zinc(II) ([Zn] = 0.5—5 mM) and a suitable amount of HCl and NaCl. All the measurements were carried out with an excess of the ligand, with respect to zinc(II) and at different zinc(II):ligand molar ratios. The selection of ratios investigated was determined by simulating titrations using Hyperquad Simulation and Speciation computer software (HySS)[41]. [Zn] and [L] were negligible compared to the background electrolyte concentrations. […] To account for the influence of zinc(II) hydrolysis in the zinc(II)/ligand systems, zinc(II) titrations were carried out separately at each ionic strength to determine the hydroxide constants so that these constants could be included in the equilibrium model used to refine the titration data. In these titrations, the zinc(II) concentration in the analyte solution was 0.7 mM.
The software program Hyperquad was used to determine the equilibrium model and to calculate pKa and stability constants from the potentiometric data set[43]. For each set of pKa constants or zinc(II):ligand ratio studied, at least two repeat titrations were performed. The titration curves for each system were treated as a single set when refining the stability constants. This meant that the refinement procedure was run on both curves at the same time to derive a single set of constants. The error reported on the stability constants is the standard deviation given in the Hyperquad output file. Examples of Hyperquad files for the zinc(II)/PYR system are provided on the Zenodo repository (https://doi.org/10.5281/zenodo.4641710).

SMILES: [Cl-].[Na+] [NaCl]
increase in phytosiderophore release [1]: 2.5–3 times
Zinc(II) content ratio ([2]; Leaves, Iranis, 0.08 M NaCl, pH 7.5, soil, 350 μmol/mol CO2): 0.88
Zinc(II) content ratio ([2]; Leaves, Iranis, 0.08 M NaCl, pH 7.5, soil, 700 μmol/mol CO2): 1.25
Zinc(II) content ratio ([2]; Leaves, Iranis, 0.16 M NaCl, pH 7.5, soil, 350 μmol/mol CO2): 0.94
Zinc(II) content ratio ([2]; Leaves, Iranis, 0.16 M NaCl, pH 7.5, soil, 700 μmol/mol CO2): 1.19
Zinc(II) content ratio ([2]; Leaves, Iranis, 0.24 M NaCl, pH 7.5, soil, 350 μmol/mol CO2): 1.35
Zinc(II) content ratio ([2]; Leaves, Iranis, 0.24 M NaCl, pH 7.5, soil, 700 μmol/mol CO2): 1.31
Zinc(II) content ratio ([2]; Roots, CM72, 0.15 M NaCl, pH 6.5, soil, Cr 0 μM): 0.68
Zinc(II) content ratio ([2]; Roots, CM72, 0.15 M NaCl, pH 6.5, soil, Cr 10 μM): 0.66
Zinc(II) content ratio ([2]; Roots, CM72, 0.15 M NaCl, pH 6.5, soil, Cr 50 μM): 0.82
Zinc(II) content ratio ([2]; Roots, Gairdner, 0.15 M NaCl, pH 6.5, soil, Cr 0 μM): 0.51
Zinc(II) content ratio ([2]; Roots, Gairdner, 0.15 M NaCl, pH 6.5, soil, Cr 10 μM): 0.56
Zinc(II) content ratio ([2]; Roots, Gairdner, 0.15 M NaCl, pH 6.5, soil, Cr 50 μM): 0.59
Zinc(II) content ratio ([2]; Roots, Iranis, 0.08 M NaCl, pH 7.5, soil, 350 μmol/mol CO2): 1.08
Zinc(II) content ratio ([2]; Roots, Iranis, 0.08 M NaCl, pH 7.5, soil, 700 μmol/mol CO2): 1.11
Zinc(II) content ratio ([2]; Roots, Iranis, 0.16 M NaCl, pH 7.5, soil, 350 μmol/mol CO2): 0.90
Zinc(II) content ratio ([2]; Roots, Iranis, 0.16 M NaCl, pH 7.5, soil, 700 μmol/mol CO2): 1.00
Zinc(II) content ratio ([2]; Roots, Iranis, 0.24 M NaCl, pH 7.5, soil, 350 μmol/mol CO2): 0.97
Zinc(II) content ratio ([2]; Roots, Iranis, 0.24 M NaCl, pH 7.5, soil, 700 μmol/mol CO2): 0.96
Zinc(II) content ratio ([2]; Shoots, CM72, 0.15 M NaCl, pH 6.5, soil, Cr 0 μM): 0.79
Zinc(II) content ratio ([2]; Shoots, CM72, 0.15 M NaCl, pH 6.5, soil, Cr 10 μM): 0.82
Zinc(II) content ratio ([2]; Shoots, CM72, 0.15 M NaCl, pH 6.5, soil, Cr 50 μM): 0.98
Zinc(II) content ratio ([2]; Shoots, Gairdner, 0.15 M NaCl, pH 6.5, soil, Cr 0 μM): 0.67
Zinc(II) content ratio ([2]; Shoots, Gairdner, 0.15 M NaCl, pH 6.5, soil, Cr 10 μM): 0.72
Zinc(II) content ratio ([2]; Shoots, Gairdner, 0.15 M NaCl, pH 6.5, soil, Cr 50 μM): 0.97
Zinc(II) content ratio ([2]; Stems, Iranis, 0.08 M NaCl, pH 7.5, soil, 350 μmol/mol CO2): 1.25
Zinc(II) content ratio ([2]; Stems, Iranis, 0.08 M NaCl, pH 7.5, soil, 700 μmol/mol CO2): 0.95
Zinc(II) content ratio ([2]; Stems, Iranis, 0.16 M NaCl, pH 7.5, soil, 350 μmol/mol CO2): 0.81
Zinc(II) content ratio ([2]; Stems, Iranis, 0.16 M NaCl, pH 7.5, soil, 700 μmol/mol CO2): 0.95
Zinc(II) content ratio ([2]; Stems, Iranis, 0.24 M NaCl, pH 7.5, soil, 350 μmol/mol CO2): 1.19
Zinc(II) content ratio ([2]; Stems, Iranis, 0.24 M NaCl, pH 7.5, soil, 700 μmol/mol CO2): 1.16
Zinc(II) content ratio ([2]; Whole-plant, Bajwar-200, 0.04 M NaCl, pH 5.6, hydroponic): 0.99
Zinc(II) content ratio ([2]; Whole-plant, Bajwar-200, 0.08 M NaCl, pH 5.6, hydroponic): 1.03
Zinc(II) content ratio ([2]; Whole-plant, Bajwar-200, 0.12 M NaCl, pH 5.6, hydroponic): 1.18
Zinc(II) content ratio ([2]; Whole-plant, TARM-92, 0.09 M NaCl, pH 8.1, soil, seeds soaked in 0.5 mM Kinetin): 1.12
Zinc(II) content ratio ([2]; Whole-plant, TARM-92, 0.09 M NaCl, pH 8.1, soil, seeds soaked in 2.0 mM GA3): 2.00
Zinc(II) content ratio ([2]; Whole-plant, TARM-92, 0.09 M NaCl, pH 8.1, soil, seeds soaked in H2O): 1.07
Zinc(II) content ratio ([2]; Whole-plant, TARM-92, 0.16 M NaCl, pH 8.1, soil, seeds soaked in 0.5 mM Kinetin): 1.13
Zinc(II) content ratio ([2]; Whole-plant, TARM-92, 0.16 M NaCl, pH 8.1, soil, seeds soaked in 2.0 mM GA3): 1.06
Zinc(II) content ratio ([2]; Whole-plant, TARM-92, 0.16 M NaCl, pH 8.1, soil, seeds soaked in H2O): 1.09
Zinc(II) content ratio ([2]; Whole-plant, TARM-92, 0.24 M NaCl, pH 8.1, soil, seeds soaked in 0.5 mM Kinetin): 1.05
Zinc(II) content ratio ([2]; Whole-plant, TARM-92, 0.24 M NaCl, pH 8.1, soil, seeds soaked in 2.0 mM GA3): 0.88
Zinc(II) content ratio ([2]; Whole-plant, TARM-92, 0.24 M NaCl, pH 8.1, soil, seeds soaked in H2O): 1.17

log β, Zn2+ + 2OH- = [Zn(OH)2] ([3]; 0.05 M NaCl): 15.40±0.06
log β, Zn2+ + 3OH- = [Zn(OH)3]- ([3]; 0.05 M NaCl): 25.16±0.09
log β, Zn2+ + 2OH- = [Zn(OH)2] ([3]; 0.15 M NaCl): 15.76±0.01
log β, Zn2+ + 3OH- = [Zn(OH)3]- ([3]; 0.15 M NaCl): 26.15±0.04
log β, Zn2+ + 2OH- = [Zn(OH)2] ([3]; 0.30 M NaCl): 15.77±0.01
log β, Zn2+ + 3OH- = [Zn(OH)3]- ([3]; 0.30 M NaCl): 26.10±0.03
log β, Zn2+ + 2OH- = [Zn(OH)2] ([3]; 0.70 M NaCl): 15.93±0.01
log β, Zn2+ + 3OH- = [Zn(OH)3]- ([3]; 0.70 M NaCl): 26.51±0.04
log β, Zn2+ + 2OH- = [Zn(OH)2] ([3]; 1.00 M NaCl): 16.05±0.01
log β, Zn2+ + 3OH- = [Zn(OH)3]- ([3]; 1.00 M NaCl): 26.56±0.03
SMILES: [Cl-].[Cl-].[Zn+2] [Zinc(II), ZnCl2]
